The subject of test [1] is MLKL phosphorylation in HT29-L23 human colorectal adenocarcinoma cells. Put plainly: MLKL Phosphorylation High-Content Assay. The test is classed as cell-based. The conditions noted are these: 6 h, necroptosis induced with TNFα, SMAC mimetic and Z-VAD, read-out: pMLKL (IC50). Summed up: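 Following fixation and staining for phospho-S358 MLKL with Hoechst nuclear counterstain, high-content imaging quantified phosphorylation in HT29-L23 cells challenged 6 h with TNFα 35 ng/mL, SMAC mimetic 700 nM and Z-VAD 140 nM. Nec-1s at 6.25 μM defined full inhibition; 4-parameter logistic fits yielded IC50 and Ymax.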

Test [2] concerns the target His-GST-TVMV-hRIPK1 (1-324) (Homo sapiens (Human), UniProt Q13546). Put plainly: RIPK1 HTRF Binding Assay. The settings on record: read-out: RIPK1 HTRF (IC50); FRET probe displacement, 1 h at rt. In general terms: In TR-FRET formats the signal depends on donor and acceptor labels being close together.
Procedure: A solution was prepared containing 0.2 nM Anti GST-Tb (Cisbio, 61GSTTLB), 90.6 nM probe and 1 nM His-GST-TVMV-hRIPK1 (1-324) in FRET Buffer (20 mM HEPES, 10 mM MgCl2, 0.015% Brij-35, 4 mM DTT, 0.05 mg/mL BSA). Using Formulatrix Tempest, the detection antibody/enzyme/probe solution (2 mL) was dispensed into wells of a 1536 plate (Black Low Binding Polystyrene 1536 Plate (Corning, 3724)) containing 10 nL of compounds of interest at appropriate concentration in DMSO. The plate was incubated at rt for 1 h. FRET was measured using the EnVision plate reader (Excitation: 340 nm, Emission: 520 nm/495 nM). Total signal (0% inhibition) was calculated from wells containing 10 nL DMSO only.

pIC50: −log10 of the molar value. Counter-ions that a name gives are not always drawn. Like-named read-outs stand apart in the source and are kept apart here.

Chain of His-GST-TVMV-hRIPK1 (1-324) (Q13546 1-324): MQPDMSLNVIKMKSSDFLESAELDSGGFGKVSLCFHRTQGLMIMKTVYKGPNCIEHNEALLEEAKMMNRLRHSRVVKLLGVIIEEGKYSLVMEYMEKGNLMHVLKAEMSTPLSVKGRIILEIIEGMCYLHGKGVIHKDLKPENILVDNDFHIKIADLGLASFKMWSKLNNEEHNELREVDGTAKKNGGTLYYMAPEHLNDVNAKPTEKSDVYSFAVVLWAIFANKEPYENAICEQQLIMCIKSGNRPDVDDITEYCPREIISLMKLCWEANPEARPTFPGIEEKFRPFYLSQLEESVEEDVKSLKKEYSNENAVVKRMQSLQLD

Usually pIC50 stands for the negative decadic logarithm of the IC50, by convention in mol/L. With `[2H]C([2H])([2H])Oc1ncc(-c2ccc3c(C(=O)NC)n[nH]c3c2)cc1C(=O)NCCC(=O)OC(C)(C)C` [Example 26, tert-butyl 3-{[2-(deutero)methoxy-5-[3-(methylcarbamoyl)-1H-indazol-6-yl]pyridin-3-yl]form-amido}propanoate], the negative logarithm of the IC50 (pIC50) in test [1] (Homo sapiens) was 7.05; in test [2], 7.09.

On to `[2H]C([2H])([2H])Oc1ncc(-c2ccc3c(C(=O)NC)n[nH]c3c2)cc1C(=O)NCC[C@H](O)c1ccc(Cl)cc1` [Example 27, 6-(5-{[(3S)-3-(4-chlorophenyl)-3-hydroxypropyl]carbamoyl}-6-(deutero)methoxypyridin-3-yl)-N-methyl-1H-indazole-3-carbox-amide, TFA], for which the pIC50 in test [1] (Homo sapiens) was 8.10; in test [2] it was 8.60.

With `[2H]C([2H])([2H])Oc1ncc(-c2ccc3c(C(=O)NC)n[nH]c3c2)cc1C(=O)NCC(C)(C)C(=O)OC(C)(C)C` [Example 28, tert-butyl 3-{[2-(deutero)meth-oxy-5-[3-(methylcarbamoyl)-1H-indazol-6-yl]pyridin-3-yl]form-amido}-2,2-dimethylpropanoate, TFA], the values for the pIC50 in test [1] (Homo sapiens) and in test [2] were 7.43 and 7.77, respectively.

For the molecule `[2H]C([2H])([2H])Oc1ncc(-c2ccc3c(C(=O)NC)n[nH]c3c2)cc1C(=O)N[C@H](C)c1cccc(C(F)(F)F)c1` [Example 34, 6-[6-(deutero)methoxy-5-{[(1R)-1-[3-(trifluoromethyl)phenyl]-ethyl]carbamoyl}pyridin-3-yl]-N-methyl-1H-indazole-3-carbox-amide], the pIC50 in test [1] (Homo sapiens) is 7.04; in test [2], 7.24.

Regarding `[2H]C([2H])([2H])Oc1ncc(-c2ccc3c(C(=O)NC)n[nH]c3c2)cc1C(=O)N[C@@H](C)c1cccc(C(F)(F)F)c1` [Example 35, 6-[6-(deutero)methoxy-5-{[(1S)-1-[3-(trifluoromethyl)phenyl]-ethyl]carbamoyl}pyridin-3-yl]-N-methyl-1H-indazole-3-carboxamide], the results for the pIC50 in test [1] (Homo sapiens) and in test [2] were 7.36 and 8.00, respectively.

As to `[2H]C([2H])([2H])Oc1ncc(-c2ccc3c(C(=O)NC)n[nH]c3c2)cc1C(=O)NC(C)c1cc(F)ccc1C(F)(F)F` (stereo not shown) [Example 36, 6-[5-({1-[5-fluoro-2-(trifluoro-methyl)phenyl]ethyl}carbamoyl)-6-(deutero)methoxypyridin-3-yl]-N-methyl-1H-indazole-3-carbox-amide], the values for the pIC50 in test [1] (Homo sapiens) and in test [2] were 7.70 and 8.03, respectively.

With `CNC(=O)c1n[nH]c2cc(-c3cnc(OC)c(C(=O)NCCC(C)c4ccccc4)c3)ccc12` (stereo not shown) [Example 37, 6-{6-methoxy-5-[(3-phenylbutyl)-carbamoyl]pyridin-3-yl}-N-methyl-1H-indazole-3-carbox-amide], the negative logarithm of the IC50 (pIC50) in test [1] was 9.52; in test [2] it was 8.77.

As for `CNC(=O)c1n[nH]c2cc(-c3cnc(OC)c(C(=O)NCc4ccccc4CN(C)C)c3)ccc12` [Example 54, 6-{5-[({2-[(dimethylamino)-methyl]phenyl}methyl)carbam-oyl]-6-methoxypyridin-3-yl}-N-methyl-1H-indazole-3-carboxamide], the negative-log IC50 (pIC50) in test [1] was 6.92; in test [2], 7.55.

As to `CNC(=O)c1n[nH]c2cc(-c3cnc(OC)c(C(=O)NCCCOc4ccccc4)c3)ccc12` [Example 55, 6-{6-methoxy-5-[(3-phenoxy-propyl)carbamoyl]pyridin-3-yl}-N-methyl-1H-indazole-3-carboxamide], the pIC50 is 7.57 in test [1] (Homo sapiens) and 7.92 in test [2].

For the molecule `CNC(=O)c1n[nH]c2cc(-c3cnc(OC)c(C(=O)NCC(O)COc4ccccc4)c3)ccc12` (stereo not shown) [Example 56, 6-{5-[(2-hydroxy-3-phenoxy-propyl)carbamoyl]-6-meth-oxypyridin-3-yl}-N-methyl-1H-indazole-3-carboxamide], the results for the negative logarithm of the IC50 (pIC50) in test [1] (Homo sapiens) and in test [2] were 7.59 and 8.08, respectively.

Turning to `CNC(=O)c1n[nH]c2cc(-c3cnc(OC)c(C(=O)NCCCOC4CCCCC4)c3)ccc12` [Example 62, 6-(5-{[3-(cyclohexyloxy)-propyl]carbamoyl}-6-methoxy-pyridin-3-yl)-N-methyl-1H-indazole-3-carboxamide], the pIC50 in test [1] (Homo sapiens) was 7.59; in test [2], 8.17.

Turning to `CNC(=O)c1n[nH]c2cc(-c3cnc(OC)c(C(=O)NCCCOc4ccc(F)cc4)c3)ccc12` [Example 63, 6-(5-{[3-(4-fluorophenoxy)-propyl]carbamoyl}-6-methoxy-pyridin-3-yl)-N-methyl-1H-indazole-3-carboxamide], the values for the negative logarithm of the IC50 (pIC50) in test [1] (Homo sapiens) and in test [2] were 7.80 and 8.64, respectively.

As for `CNC(=O)c1n[nH]c2cc(-c3cnc(OC)c(C(=O)NCCCOCC(C)C)c3)ccc12` [Example 64, 6-(6-methoxy-5-{[3-(2-methyl-propoxy)propyl]carbamoyl}-pyridin-3-yl)-N-methyl-1H-indazole-3-carboxamide], the pIC50 in test [1] (Homo sapiens) is 8.52; in test [2], 8.09.

As to `CNC(=O)c1n[nH]c2cc(-c3cnc(OC)c(C(=O)NCCC(O)c4ccc(Cl)cn4)c3)ccc12` (stereo not shown) [Example 65, 6-(5-{[3-(5-chloropyridin-2-yl)-3-hydroxypropyl]carbamoyl}-6-methoxypyridin-3-yl)-N-methyl-1H-indazole-3-carbox-amide], the negative-log IC50 (pIC50) in test [1] is 8.80; in test [2], 8.08.

Regarding `CNC(=O)c1n[nH]c2cc(-c3cnc(OC)c(C(=O)NCC4(COc5ccccc5)CC4)c3)ccc12` [Example 68, 6-[6-methoxy-5-({[1-(phenoxy-methyl)cyclopropyl]methyl}-carbamoyl)-pyridin-3-yl]-N-methyl-1H-indazole-3-carbox-amide], the figures for the negative-log IC50 (pIC50) in test [1] and in test [2] were 7.55 and 8.34, respectively.

Regarding `CNC(=O)c1n[nH]c2cc(-c3cnc(OC)c(C(=O)NCC4(c5ccc(F)cc5)CC4)c3)ccc12` [Example 71, 6-[5-({[1-(4-fluorophenyl)cyclo-propyl]methyl}carbamoyl)-6-methoxypyridin-3-yl]-N-methyl-1H-indazole-3-carboxamide], the pIC50 is 7.11 in test [1] (Homo sapiens) and 7.10 in test [2].

`CNC(=O)c1n[nH]c2cc(-c3cnc(OC)c(C(=O)NCC4(c5ccccc5OC(F)(F)F)CC4)c3)ccc12` [Example 72, 6-{6-methoxy-5-[({1-[2-(tri-fluoromethoxy)phenyl]cyclo-propyl}methyl)carbamoyl]-pyridin-3-yl}-N-methyl-1H-indazole-3-carboxamide]: the figures for the pIC50 in test [1] (Homo sapiens) and in test [2] were 6.40 and 6.41, respectively.

For `CNC(=O)c1n[nH]c2cc(-c3cnc(OC)c(C(=O)NCc4ccccc4NC(=O)OC(C)(C)C)c3)ccc12` [Example 73, tert-butyl-N-{2-[({2-methoxy-5-[3-(methylcarbamoyl)-1H-indazol-6-yl]pyridin-3-yl}-formamido)methyl]phenyl}-carbamate], the negative-log IC50 (pIC50) in test [1] (Homo sapiens) was 6.92; in test [2], 8.33.

Consider `CNC(=O)c1n[nH]c2cc(-c3cnc(OC)c(C(=O)NCCC(=O)OC(C)(C)C)c3)ccc12` [Example 74, tert-butyl 3-({2-methoxy-5-[3-(methylcarbamoyl)-1H-indazol-6-yl]pyridin-3-yl}formamido)-propanoate], for which the negative logarithm of the IC50 (pIC50) was 7.21 in test [1] (Homo sapiens) and 7.55 in test [2].

For the molecule `CNC(=O)c1n[nH]c2cc(-c3cnc(OC)c(C(=O)NCc4ccccc4OCC(F)(F)F)c3)ccc12` [Example 75, 6-[6-methoxy-5-({[2-(2,2,2-trifluoroethoxy)phenyl]-methyl}carbamoyl)pyridin-3-yl]-N-methyl-1H-indazole-3-carboxamide, TFA], the negative logarithm of the IC50 (pIC50) was 8.36 in test [1] and 8.74 in test [2].

Take `CNC(=O)c1n[nH]c2cc(-c3cnc(OC)c(C(=O)NCc4cc(C(F)(F)F)ccc4OC)c3)ccc12` [Example 76, 6-[6-methoxy-5-({[2-methoxy-5-(trifluoromethyl)phenyl]-methyl}carbamoyl)pyridin-3-yl]-N-methyl-1H-indazole-3-carboxamide]: the figures for the pIC50 in test [1] (Homo sapiens) and in test [2] were 7.00 and 7.01, respectively.

For `CNC(=O)c1n[nH]c2cc(-c3cnc(OC)c(C(=O)NC[C@@H]4CCCC[C@H]4NC(=O)OC(C)(C)C)c3)ccc12` [Example 77, tert-butyl N-[(1R,2S)-2-[({2-methoxy-5-[3-(methylcarbam-oyl)-1H-indazol-6-yl]pyridin-3-yl}formamido)methyl]-cyclohexyl]carbamate], the values for the negative logarithm of the IC50 (pIC50) in test [1] and in test [2] were 7.11 and 8.42, respectively.

With `CNC(=O)c1n[nH]c2cc(-c3cnc(OC)c(C(=O)NCC4CCCOC4c4ccccc4)c3)ccc12` (stereo not shown) [Example 79, 6-(6-methoxy-5-{[(2-phenyl-oxan-3-yl)methyl]carbamoyl}-pyridin-3-yl)-N-methyl-1H-indazole-3-carboxamide], the pIC50 was 7.68 in test [1] (Homo sapiens) and 8.74 in test [2].

With `CNC(=O)c1n[nH]c2cc(-c3cnc(OC)c(C(=O)NCC4CCCOC4C(C)(C)C)c3)ccc12` (stereo not shown) [Example 83, 6-(5-{[(2-tert-butyloxan-3-yl)-methyl]carbamoyl}-6-methoxy-pyridin-3-yl)-N-methyl-1H-indazole-3-carboxamide], the negative logarithm of the IC50 (pIC50) in test [1] (Homo sapiens) was 7.33; in test [2], 8.12.

For the molecule `CNC(=O)c1n[nH]c2cc(-c3cnc(OC)c(C(=O)NCc4ccccc4C#N)c3)ccc12` [Example 84, 6-(5-{[(2-cyanophenyl)methyl]-carbamoyl}-6-methoxypyridin-3-yl)-N-methyl-1H-indazole-3-carboxamide], the pIC50 is 6.74 in test [1] (Homo sapiens) and 7.35 in test [2].

For `CNC(=O)c1n[nH]c2cc(-c3cnc(OC)c(C(=O)NCc4ccccc4OCC4CCC4)c3)ccc12` [Example 86, 6-[5-({[2-(cyclobutylmethoxy)-phenyl]methyl}carbamoyl)-6-methoxypyridin-3-yl]-N-methyl-1H-indazole-3-carbox-amide], the pIC50 in test [1] is 8.39; in test [2], 8.62.

Values taken from patent US12172975B2, “1H-indazole carboxamides as receptor-interacting protein kinase 1 inhibitors (RIPK1)” (BRISTOL-MYERS SQUIBB COMPANY, priority 2018, dated 2024).
